In patent US20110263454A1, “Methods of Identifying Functional Characteristics of Promoters, Transcription Modifying Proteins and Transcription Modulating Agents” (Salk Institute for Biological Studies, priority 2008, published 2011):

How the values were obtained:
mCAR promoter = assay: NHR-promoter luciferase screen, mCAR promoter; assay type: cell-based, mouse; conditions: for luciferase activity normalized to lacZ activity and to a control, mCAR: mCAR promoter-luciferase, CV-1 cells, NHR +/- ligand, control = 1.00; for Luc. act., normalized to lacZ / Normalized Luc. act., normalized to control: mCAR promoter, HR/ligand component
Protocol: (§1) The use, feasibility, and reproducibility of the functional NHR-promoter screen in a 48-well format have been tested validated. Briefly, there were co-expressed 50 ng of each NHR/NHR homodimer or NHR/RXR heterodimer with 100 ng promoter/luciferase construct and 50 ng of LacZ (as a control for transfection efficiency) in CV-1 cells using Fugene HD (Roche) as a transfection reagent (alternatively or additionally, a CMV-YFP construct can be used as a transfection control). Each of the nuclear hormone receptors that were used in these experiments was cloned into a pcDNA3.1 vector and comprised a C-terminally linked V5H6 tag. Twenty-four hours after transfection, appropriate ligands were added, where applicable, (see Table 5 for various ligands and concentrations and after 48 hrs, samples were assayed for luciferase and LacZ activity. To measure for luciferase activity 15 ul of sample was added to 30 ul of luciferase buffer (20 mM tricine, 1.07 mM MgCarbonate, 2.67 mM MgSulfate, 0.1 mM Naz-EDTA, 5 mM DTT, 5 mM ATP, 0.15 mg/ml CoA, 0.5 mM Luciferin), mixed briefly, and run in a Perkin Elmer Victor 5 luminometer. Thus, the functional NHR-promoter screen was used to observe the transcriptional activity of 29 promoters from various physiological pathways including inflammation, lipid and sugar metabolism, cholesterol transport, xenobiotic metabolism, and circadian rhythm.
(§2) The promoters that facilitate transcription of the indicated gene products that were tested using the protocols described herein are listed in the first row of the table. The nuclear hormone receptors and, where applicable, ligands that were assayed for their transcriptional effects on the promoters are listed in the first column of the table. The data represent the luciferase activity of each sample normalized to both the lacZ activity of that sample and to a control, e.g., no NHR or ligand, as customary in the art. As described previously, these normalizations allow the transcriptional activity of each reporter cell to be compared to other samples.
(§3) Tables 7-40 show the transcriptional effects of the hormone receptors, and, where applicable, ligands (orphan receptors are screened without ligand), on each individual promoter. […] The control data of each table are shown in their last rows.

mUCP2 promoter = assay: NHR-promoter luciferase screen, mUCP2 promoter; assay type: cell-based, mouse; conditions: for Luc. act., normalized to lacZ / Normalized Luc. act., normalized to control: mUCP2 promoter reporter, co-transfected HR, with or without its ligand; for Normalized Luc. act., normalized to control: relative to control; for luciferase activity normalized to lacZ activity and to a control, mUCP2: mUCP2 promoter-luciferase, CV-1 cells, NHR +/- ligand, control = 1.00
Protocol: as §1, §2, §3

mLeptin promoter = assay: NHR-promoter luciferase screen, mLeptin promoter; assay type: cell-based, mouse; conditions: for Luc. act., normalized to lacZ / Normalized Luc. act., normalized to control: Table 7, mLeptin; for Results of assays of transcription factor (+/- ligand) with mLeptin: Table 6d, luciferase activity relative to control (control = 1.00); for luciferase/LacZ, mLeptin (selected results): mLeptin promoter-luciferase, NHR +/- ligand, control = 1.0
Protocol: as §1, §2, §3

hCYP3A4 promoter = assay: NHR-promoter luciferase screen, hCYP3A4 promoter; assay type: cell-based, human; conditions: for Luc. act., normalized to lacZ / Normalized Luc. act., normalized to control: CYP3A4 promoter, HR/ligand component; for hCYP3A4 promoter reporter activity: transcription factor +/- ligand, control = 1.00
Protocol: Briefly, there were co-expressed 50 ng of each NHR/NHR homodimer or NHR/RXR heterodimer with 100 ng promoter/luciferase construct and 50 ng of LacZ (as a control for transfection efficiency) in CV-1 cells using Fugene HD (Roche) as a transfection reagent (alternatively or additionally, a CMV-YFP construct can be used as a transfection control). Each of the nuclear hormone receptors that were used in these experiments was cloned into a pcDNA3.1 vector and comprised a C-terminally linked V5H6 tag.
as §2, §3

hIFNg promoter = assay: NHR-promoter luciferase screen, hIFNg promoter; assay type: cell-based, human; conditions: for Luc. act., normalized to lacZ / Normalized Luc. act., normalized to control: IFNg promoter, HR component without or with ligand; for hIFNg promoter reporter activity: transcription factor +/- ligand, control = 1.00
Protocol: as §1, §2, §3

hPPARg1 promoter = assay: NHR-promoter luciferase screen, hPPARg1 promoter; assay type: cell-based, human; conditions: for Luc. act., normalized to lacZ / Normalized Luc. act., normalized to control: PPARG1 promoter, hormone receptor with or without its ligand; for Normalized Luc. act., normalized to control: relative to control; for Results of assays of transcription factor (+/- ligand) with hPPARg1: Table 6d, luciferase activity relative to control (control = 1.00)
Protocol: as §1, §2, §3

Substance | luciferase activity normalized to lacZ activity and to a control, mCAR (mCAR promoter) | Luc. act., normalized to lacZ (mCAR promoter) | Normalized Luc. act., normalized to control (mCAR promoter) | Luc. act., normalized to lacZ (mUCP2 promoter) | Normalized Luc. act., normalized to control (mUCP2 promoter) | luciferase activity normalized to lacZ activity and to a control, mUCP2 (mUCP2 promoter) | Luc. act., normalized to lacZ (mLeptin promoter) | Normalized Luc. act., normalized to control (mLeptin promoter) | Results of assays of transcription factor (+/- ligand) with mLeptin (mLeptin promoter) | luciferase/LacZ, mLeptin (selected results) (mLeptin promoter) | Luc. act., normalized to lacZ (hCYP3A4 promoter) | Normalized Luc. act., normalized to control (hCYP3A4 promoter) | hCYP3A4 promoter reporter activity (hCYP3A4 promoter) | Luc. act., normalized to lacZ (hIFNg promoter) | Normalized Luc. act., normalized to control (hIFNg promoter) | hIFNg promoter reporter activity (hIFNg promoter) | Luc. act., normalized to lacZ (hPPARg1 promoter) | Normalized Luc. act., normalized to control (hPPARg1 promoter) | Results of assays of transcription factor (+/- ligand) with hPPARg1 (hPPARg1 promoter)
GR: Glucocorticoid Receptor (NR3C1), cDNA driver | 0.23 | 8.74 | 0.2 | 59.4 | 0.5 | 0.54 | 1.7 | 0.6 | 0.58 | 0.6 | 2.0 | 0.5 | 0.45 | 8.9 | 0.6 | 0.56 | 37.2 | 0.5 | 0.54
NR4a1: NR4a1 (NR4A1; NUR77), nuclear hormone receptor cDNA driver | 0.94 | 35.66 | 0.9 | 265.6 | 2.4 | 2.42 | 2.3 | 0.8 | 0.80 | 0.8 | 6.2 | 1.4 | 1.40 | 35.6 | 2.2 | 2.24 | 129.6 | 1.9 | 1.88
AR: Androsterone Receptor (NR3C4), cDNA driver | 0.81 | 30.88 | 0.8 | 196.6 | 1.8 | 1.79 | 2.5 | 0.8 | 0.84 | – | 3.9 | 0.9 | 0.88 | 31.4 | 2.0 | 1.97 | 90.6 | 1.3 | 1.31
PNR: Photoreceptor-specific Nuclear Receptor (NR2E3), cDNA driver | 0.55 | 21.0 | 0.6 | 104.4 | 1.0 | 0.95 | 2.0 | 0.7 | 0.68 | – | 2.2 | 0.5 | 0.50 | 11.3 | 0.7 | 0.71 | 45.9 | 0.7 | 0.67
TLX: Tailless (homolog of drosophila) (NR2E1), cDNA driver | 0.39 | 15.0 | 0.4 | 111.9 | 1.0 | 1.02 | 2.6 | 0.9 | 0.89 | – | 4.0 | 0.9 | 0.90 | 28.0 | 1.8 | 1.76 | 107.9 | 1.6 | 1.57
